The assay deals with T1, Gal4-RORγ-LBD (Homo sapiens, UniProt P51449).
T1 construct: expressed in transfected cells; host or cells: HEK-293 cells (pcDNA3.1neo plasmid)
T1 sequence (P51449 269-508 limits assumed): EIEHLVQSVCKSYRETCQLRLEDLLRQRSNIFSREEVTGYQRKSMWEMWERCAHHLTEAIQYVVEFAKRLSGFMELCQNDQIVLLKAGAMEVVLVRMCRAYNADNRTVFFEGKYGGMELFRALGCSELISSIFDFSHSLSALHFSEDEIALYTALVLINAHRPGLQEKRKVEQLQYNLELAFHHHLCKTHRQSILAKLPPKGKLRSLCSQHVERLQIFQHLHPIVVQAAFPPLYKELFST
Kind of assay: Gal4-RORγ Luciferase Reporter Assay in HEK-293T Cells. In kind it is cell-based. Particulars: HEK-293 cells. As to the method:
Assay procedures and results are described below.
In the following protocol, HEK-293 cells were transfected with a construct comprising the Gal4 DNA binding domain fused to the ligand binding domain of RORγ (Gal4-RORγ-LBD) in a pcDNA3.1neo plasmid, and also with a reporter construct comprising pGL4.31 Gal4-luciferase (Promega). Control cells were prepared similarly using empty pcDNA3.1neo and pGL4.31 vectors.
Trans-IT reagent (Mirus, 60 μL) at room temperature was added drop wise to OptiMEM (Invitrogen, 1.5 ml). This reagent mixture was mixed by inversion then incubated for 5 to 30 minutes at room temperature. It then was added to a solution of both expression vectors (5 μg each), mixed, and incubated at room temperature for about 20 minutes. HEK-293 cells were harvested from incubation flasks by removing the media, treating with TrypLE Express (Invitrogen), and incubating until the cells detached from the bottom of the flask (approximately 2-5 minutes). 10 Million cells were collected by centrifugation and re-suspended in 10 mL of Dulbecco's Modified Eagle Medium, High Glucose (DMEM, Invitrogen) containing 10% Fetal Bovine Serum and 100 IU each of penicillin and streptomycin. The re-suspended cells and the transfection mixture were added to a T75 flask, mixed and incubated overnight at 37° C. and 5% CO2.
The cells were harvested as described above, counted, and centrifuged to obtain the desired number of cells, then re-suspended in complete growth media at 0.75×10^6 cells/mL. The RORγ antagonist, ursolic acid, was added to the cells at a final concentration of 2 μM. Cells were plated at 20 μL of cell suspension/well (10,000-15,000 cells/well) in white tissue culture treated 384 well plates. Test compounds were dissolved at 10 mM in DMSO then diluted into complete growth medium to 5× the final intended test concentration. These drug stock solutions, 5 μL/well were added to the tissue culture plate. The final DMSO concentration was 0.2%. The plates were briefly centrifuged then incubated overnight at 37° C. and 5% CO2. To conduct the assay, the tissue culture plates were allowed to equilibrate to room temperature and One-Glo luciferase reagent (Promega, 25 μL/well) was added. The plates were briefly centrifuged then incubated at room temperature for 10 minutes. The luciferase intensity was read on an Envision plate reader (Perkin Elmer). […] The luciferase signal in the absence of ursolic acid or test compound is defined at 100. The Max Response is the upper plateau in the signal as determined by line-fit using a 4-parameter logistic model in PRISM (GraphPad).

Setting [1] is: luciferase reporter, with 2 μM ursolic acid.

Molecules are shown by their SMILES. Where only a bound is given, the exact number is not on record here.

As to `O=C(O)C1(C[C@H]2CN(S(=O)(=O)c3cccc(C(F)(F)F)c3)c3cc(-c4cc(F)cc(C(F)(F)F)c4)ccc3O2)CCOCC1` [Compound 78O, (S)-4-((6-(3-fluoro-5-(trifluoro-methyl)phenyl)-4-((3-(trifluoro-methyl)phenyl)sulfonyl)-3,4-dihydro-2H-benzo[b][1,4]oxazin-2-yl)methyl)tetrahydro-2H-pyran-4-carboxylic acid], under “2 μM ursolic acid”, the EC50 is less than 500 nM and the “Gal4-RORγ Assay Max Response” value was “** (The symbol “**” indicates a value in the range of greater than 90 to 150)”.
The corresponding values for `O=C(O)C1(C[C@H]2CN(S(=O)(=O)c3cccc(C(F)(F)F)c3)c3cc(-c4cc(Cl)cc(F)c4F)ccc3O2)CCOCC1` [Compound 78W, (S)-4-((6-(5-chloro-2,3-difluorophenyl)-4-((3-(trifluoromethyl)phenyl)sulfonyl)-3,4-dihydro-2H-benzo[b][1,4]oxazin-2-yl)methyl)tetrahydro-2H-pyran-4-carboxylic acid] are less than 500 nM and “** (The symbol “**” indicates a value in the range of greater than 90 to 150)”.
As to `COc1cc(S(=O)(=O)N2C[C@H](CNS(=O)(=O)N3CCCC3)Oc3ccc(-c4cc(F)ccc4F)cc32)ccc1F` [Compound 45F, (S)-N-((6-(2,5-difluorophenyl)-4-((4-fluoro-3-methoxyphenyl)sulfonyl)-3,4-dihydro-2H-benzo[b][1,4]oxazin-2-yl)methyl)pyrrolidine-1-sulfonamide], the EC50 (2 μM ursolic acid) was less than 500 nM.
For the compound `O=C(O)[C@]1(C[C@H]2CN(S(=O)(=O)c3cccc(C(F)(F)F)c3)c3cc(-c4cc(F)ccc4F)ccc3O2)C[C@@](O)(CO)C1` [Compound 89E, (1s,3S)-1-(((S)-6-(2,5-difluoro-phenyl)-4-((3-(trifluoromethyl)-phenyl)sulfonyl)-3,4-dihydro-2H-benzo[b][1,4]oxazin-2-yl)methyl)-3-hydroxy-3-(hydroxymethyl)-cyclobutane-1-carboxylic acid], for the setting “2 μM ursolic acid”, the EC50 lay within 500 to 5000 nM and the “Gal4-RORγ Assay Max Response” value is on record as “** (The symbol “**” indicates a value in the range of greater than 90 to 150)”.
In the case of `C[C@]1(C(=O)O)C[C@H](C[C@H]2CN(S(=O)(=O)c3cccc(C(F)(F)F)c3)c3cc(-c4cc(F)cc(OC(F)F)c4)ccc3O2)C1` [Compound 69, (1S,3r)-3-(((S)-6-(3-(difluoromethoxy)-5-fluorophenyl)-4-((3-(trifluoromethyl)phenyl)sulfonyl)-3,4-dihydro-2H-benzo[b][1,4]oxazin-2-yl)methyl)-1-methylcyclobutane-1-carboxylic acid], for the setting “2 μM ursolic acid”, the EC50 lay in the range of 500 to 5000 nM and the “Gal4-RORγ Assay Max Response” value is on record as “** (The symbol “**” indicates a value in the range of greater than 90 to 150)”.
Turning to `C[C@]1(C(=O)O)C[C@@H](C[C@H]2CN(S(=O)(=O)c3cccc(C(F)(F)F)c3)c3cc(-c4cc(F)cc(OC(F)F)c4)ccc3O2)C1` [Compound 70, (1R,3s)-3-(((S)-6-(3-(difluoromethoxy)-5-fluorophenyl)-4-((3-(trifluoromethyl)phenyl)sulfonyl)-3,4-dihydro-2H-benzo[b][1,4]oxazin-2-yl)methyl)-1-methylcyclobutane-1-carboxylic acid], for the setting “2 μM ursolic acid”, the EC50 is 500 to 5000 nM and the “Gal4-RORγ Assay Max Response” value is on record as “*** (The symbol “***” indicates a value in the range of greater than 150 to 200)”.
Consider `O=C(O)C1(C[C@H]2CN(S(=O)(=O)c3cccc(C(F)(F)F)c3)c3cc(-c4cccc(OC(F)(F)F)c4)ccc3O2)CCOCC1` [Compound 78K, (S)-4-((6-(3-(trifluoromethoxy)-phenyl)-4-((3-(trifluoromethyl)-phenyl)sulfonyl)-3,4-dihydro-2H-benzo[b][1.4]oxazin-2-yl)methyl)tetrahydro-2H-pyran-4-carboxylic acid], for which, where the note is “2 μM ursolic acid”, the EC50 was less than 500 nM and the “Gal4-RORγ Assay Max Response” value is reported as “** (The symbol “**” indicates a value in the range of greater than 90 to 150)”.
For `Cc1cc(F)cc(-c2ccc3c(c2)N(S(=O)(=O)c2cccc(C(F)(F)F)c2)C[C@H](CC2(C(=O)O)CCOCC2)O3)c1` [Compound 78Q, (S)-4-((6-(3-fluoro-5-methyl-phenyl)-4-((3-(trifluoromethyl)-phenyl)sulfonyl)-3,4-dihydro-2H-benzo[b][1,4]oxazin-2-yl)methyl)tetrahydro-2H-pyran-4-carboxylic acid] the same measures were less than 500 nM and “** (The symbol “**” indicates a value in the range of greater than 90 to 150)”.
The corresponding values for `O=C(O)[C@@]1(C[C@H]2CN(S(=O)(=O)c3cccc(C(F)(F)F)c3)c3cc(-c4cc(F)cc(OC(F)F)c4)ccc3O2)C[C@@H](O)[C@@H](O)C1` [Compound 65, (1r,3R,4S)-1-(((S)-6-(3-(difluoromethoxy)-5-fluorophenyl)-4-((3-(trifluoromethyl)phenyl)sulfonyl)-3,4-dihydro-2H-benzo[b][1,4]oxazin-2-yl)methyl)-3,4-dihydroxycyclopentane-1-carboxylic acid] are 500 to 5000 nM and “** (The symbol “**” indicates a value in the range of greater than 90 to 150)”.
`COc1cc(S(=O)(=O)N2C[C@H](CNC(=O)C(C)(C)O)Oc3ccc(-c4cccc(C(F)(F)F)n4)cc32)ccc1F` [Compound 30T, (S)-N-((4-((4-fluoro-3-methoxyphenyl)sulfonyl)-6-(6-(trifluoromethyl)pyridin-2-yl)-3,4-dihydro-2H-benzo[b][1,4]oxazin-2-yl)methyl)-2-hydroxy-2-methylpropanamide]: under setting [1], the EC50 was less than 500 nM and the “Gal4-RORγ Assay Max Response” value is recorded as “* (The symbol “*” indicates a value in the range of 25 to 90)”.
`O=C(O)C1(C[C@H]2CN(S(=O)(=O)c3cccc(C(F)F)c3)c3cc(-c4cc(F)cc(OC(F)F)c4)ccc3O2)COC1` [Compound 51J, (S)-3-((6-(3-(difluoromethoxy)-5-fluorophenyl)-4-((3-(difluoro-methyl)phenyl)sulfonyl)-3,4-dihydro-2H-benzo[b][1,4]oxazin-2-yl)methyl)oxetane-3-carboxylic acid]: for the setting “2 μM ursolic acid”, the EC50 was less than 500 nM and the “Gal4-RORγ Assay Max Response” value is given as “** (The symbol “**” indicates a value in the range of greater than 90 to 150)”.
The corresponding values for `O=C(O)CO[C@@H]1Cc2ccc(-c3cc(F)cc(OC(F)F)c3)cc2N(S(=O)(=O)c2cccc(C(F)(F)F)c2)C1` [Compound 83E, (R)-2-((7-(3-(difluoromethoxy)-5-fluorophenyl)-1-((3-(trifluoro-methyl)phenyl)sulfonyl)-1,2,3,4-tetrahydroquinolin-3-yl)oxy)acetic acid] are 500 to 5000 nM and “* (The symbol “*” indicates a value in the range of 25 to 90)”.
On to `COc1cc(Cl)cc(-c2ccc3c(c2)N(S(=O)(=O)c2cccc(C(F)(F)F)c2)C[C@H](CC2(C(=O)O)CCOCC2)O3)c1` [Compound 78L, (S)-4-((6-(3-chloro-5-methoxy-phenyl)-4-((3-(trifluoromethyl)-phenyl)sulfonyl)-3,4-dihydro-2H-benzo[b][1,4]oxazin-2-yl)methyl)tetrahydro-2H-pyran-4-carboxylic acid], for which, under “2 μM ursolic acid”, the EC50 is less than 500 nM and the “Gal4-RORγ Assay Max Response” value was “** (The symbol “**” indicates a value in the range of greater than 90 to 150)”.
The corresponding values for `O=C(O)CO[C@@H]1Cc2ccc(-c3cc(F)ccc3F)cc2N(S(=O)(=O)c2cccc(C(F)(F)F)c2)C1` [Compound 82, (R)-2-((7-(2,5-difluorophenyl)-1-((3-(trifluoromethyl)phenyl)sulfonyl)-1,2,3,4-tetrahydroquinolin-3-yl)oxy)acetic acid] are 500 to 5000 nM and “** (The symbol “**” indicates a value in the range of greater than 90 to 150)”.
For `O=C(O)[C@]1(C[C@H]2CN(S(=O)(=O)c3cccc(C(F)(F)F)c3)c3cc(-c4cc(F)cc(OC(F)F)c4)ccc3O2)C[C@H](O)C1` [Compound 67, (1s,3S)-1-(((S)-6-(3-(difluoromethoxy)-5-fluorophenyl)-4-((3-(trifluoromethyl)phenyl)sulfonyl)-3,4-dihydro-2H-benzo[b][1,4]oxazin-2-yl)methyl)-3-hydroxycyclobutane-1-carboxylic acid] the same measures were less than 500 nM and “** (The symbol “**” indicates a value in the range of greater than 90 to 150)”.

What is called EC50 is the concentration at which the effect is half-maximal. Low readings indicate greater potency, high ones weaker potency.

The record behind these values is US10611740B2, “Aryl dihydro-2H-benzo[b][1,4]oxazine sulfonamide and related compounds for use as agonists of RORγ and the treatment of disease” (Lycera Corporation, priority 2015, dated 2020).
